Results: patent US20240190888A1, “SPIRO-CONTAINING DERIVATIVE, AND PREPARATION METHOD THEREFOR AND USE THEREOF” (priority 2021, published 2024)
pEC50: −log10 of the molar value.

Columns and labels:
5-HT1A receptor = target: T1, 5-HT1A receptor (Homo sapiens, UniProt P08908); assay: 5-HT1A receptor cAMP agonist test (HEK293 cell line stably expressing 5-HT1A receptor); format: cell-based; settings: for pEC50: cAMP agonist assay with forskolin, HEK293 cells stably expressing 5-HT1A; for 5-HT1A Max Act %: maximal activation rate relative to Serotonin positive control
T1 construct: expressed in transfected cells
T1 sequence (P08908 1-422): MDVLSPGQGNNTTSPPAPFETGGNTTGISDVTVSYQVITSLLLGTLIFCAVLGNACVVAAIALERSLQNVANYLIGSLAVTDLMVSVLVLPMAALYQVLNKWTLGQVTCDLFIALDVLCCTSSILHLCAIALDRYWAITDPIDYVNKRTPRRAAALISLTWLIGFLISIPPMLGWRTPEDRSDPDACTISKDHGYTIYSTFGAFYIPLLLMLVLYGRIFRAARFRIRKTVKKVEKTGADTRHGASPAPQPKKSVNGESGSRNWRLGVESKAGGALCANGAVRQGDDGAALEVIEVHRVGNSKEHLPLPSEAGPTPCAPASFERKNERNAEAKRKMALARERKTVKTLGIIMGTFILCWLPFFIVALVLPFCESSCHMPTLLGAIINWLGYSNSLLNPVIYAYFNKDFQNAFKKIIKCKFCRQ
Description: 2.1 Experimental Materials:
The cAMP detection kit was purchased from Cisbio; the HEK293 cell line stably expressing 5-HT1A receptor was constructed by Shanghai Shujing Biotechnology Co., Ltd.; Serotonin, Forskolin and IBMX were purchased from Sigma; ProxiPlate-384-well plates was purchased from PerkinElmer; HBSS was purchased from Thermo Fisher Scientific.
(§1) (1) Preparation of experimental buffer: 5×stimulation buffer was diluted to 1× with ddH2O, adding IBMX with a final concentration of 0.5 mM, mixing well for later use.
(2) The cultured cells were digested with trypsin, and the cell suspension was washed with HBSS buffer after the digestion was terminated, centrifuging to remove the culture medium at 200×g; the precipitate was resuspended with an appropriate amount of experimental buffer, taking 20 μL for counting with a cell counter, and diluting to 0.4×10^6 cells/mL.
(3) 5 μL cell suspension (2×10^3 cells per well) was added to ProxiPlate-384 well plate.
(4) The compound to be tested was diluted in the experimental buffer by gradient, and 5 μL was transferred to the reaction plate using Bravo, 5 μL experimental buffer was put in each negative control well, and 5 μL Serotonin (final concentration 10^−6 M) was put in each positive control well.
(5) Incubating at room temperature for 15 minutes.
(6) Forskolin (final concentration 1.5×10^−7M) was added to the reaction plate using TecanD300e picoliter micro-dosing system.
(7) Incubating at room temperature for 45 minutes.
(8) 10 μL detection reagent was added to the reaction plate, incubating at room temperature for 1 hour in dark.
(§2) Activation rate (activity %)=(negative control ratio-compound ratio)/(negative control ratio-positive control ratio)×100%
The EC50 values of the compounds were calculated using the four-parameter fitting model log(agouist)vs. response—Variable slope (four parameters) in Graph Pad Prism.

TAAR1 receptor = target: T2, TAAR1 receptor (Homo sapiens, UniProt Q96RJ0); assay: TAAR1 receptor cAMP agonist test (HEK293 cell line stably expressing TAAR1 receptor); format: cell-based; settings: for pEC50: cAMP agonist assay, HEK293 cells stably expressing TAAR1; for TAAR1 Max Act %: maximal activation rate relative to PEA positive control
T2 construct: expressed in transfected cells
T2 sequence (Q96RJ0 1-339): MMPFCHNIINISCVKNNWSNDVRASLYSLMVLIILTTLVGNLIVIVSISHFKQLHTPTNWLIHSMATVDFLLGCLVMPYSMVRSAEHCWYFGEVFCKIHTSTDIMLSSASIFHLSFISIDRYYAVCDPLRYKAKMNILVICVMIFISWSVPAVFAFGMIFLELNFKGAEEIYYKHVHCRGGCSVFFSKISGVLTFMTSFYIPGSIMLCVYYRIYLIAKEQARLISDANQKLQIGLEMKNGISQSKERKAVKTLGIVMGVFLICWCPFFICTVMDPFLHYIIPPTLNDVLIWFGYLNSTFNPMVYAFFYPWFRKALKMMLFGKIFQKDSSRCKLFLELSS
Description: 1.1 Experimental Materials:
The cAMP detection lit was purchased from Cisbio; the […] cell line stably expressing TAAR1 receptor was constructed by Shanghai Singing Biotechnology Co., Ltd.; IBMX was purchased from Sigma; Phenethylamine (PEA); ProxiPlate-384 well plate was purchased from PerkinElmer. HBSS was purchased from Thermo Fisher Scientific Company.
as §1
(2) The frozen cells were thawed quickly in a 37° C. water bath, the cell suspension was washed with HBSS buffer, centrifuging at 200×g to remove the frozen storage solution, the pellet was resuspended with an appropriate amount of experimental buffer, taking 20 μL for counting with a cell counter, and diluting to 1.5×10^6 cells/mL.
(3) 5 μL of cell suspension (1.5×10^4 cells per well) was added to the ProxiPlate-384 well plate.
(4) The compound to be tested was diluted in the experimental buffer by gradient, and 5 μL was transferred to the reaction plate using Bravo, 5 μL experimental buffer was put in each negative control well, and 5 μL PEA (final concentration 10^−2M) was put in each positive control well.
(5) Incubating at 37° C. for 1 hour.
(6) 10 ELL of detection reagent was added to the reaction plate, incubating at room temperature for 1 hour in dark.
as §2
The EC50 values of the compounds were calculated using the four-parameter fitting model log(agonist)vs.response—Variable slope (four parameters) in GraphPad Prism.

[1] = tested on: high spontaneous activity induced by MK-801; assay: Inhibition of high spontaneous activity induced by MK-801 in mice; format: in vivo; settings: male C57Bl/6J mice, compound p.o. 30 min before MK-801 0.3 mg/kg i.p.
Description: 3.1 Experimental Materials:
Compounds to be tested: compounds in the examples of the present application, self-made.
(§3) Experimental animals: 18-22 g male C57Bl/6J mice, purchased from Shanghai Slack Experimental Animal Co., Ltd.
3.2.1 Grouping of animals: before the start of the experiment, animals were randomly grouped according to body weight. 3.2.2 Animal adaptation: before the experiment, the mice were first adapted to the experimental environment for at least 1 hour. That is, the animals were transferred from the breeding room to the laboratory and moved freely in the cage.
Drug preparation: taking the compound to be tested, adding pure water and performing ultrasonication.
The animals were randomly divided into blank group, model group, and administration group according to body weight, 9 mice % group, and the detailed administration information is shown in the following table:
T-30 min oral administration of compound: compound to be tested or solvent (pure water) was administered orally by gavage, and put into test box (test box size length*width*height=27*27*40 cm) immediately after administration, recording the spontaneous activity of the mice within 30 minutes.
The blank control group was injected with normal saline.
3.2.4 Data Recording and Analysis.
(§4) The activities of these animals (movement distance in the test box) were automatically recorded by the camera, and analyzed with ANY MAZE software, and the ED50 values were calculated.

[2] = tested on: high spontaneous activity induced by PCP; assay: Inhibition of high spontaneous activity induced by PCP in mice; format: in vivo; settings: male C57Bl/6J mice, compound p.o. 30 min before PCP 5 mg/kg i.p.
Excerpt: Compounds to be tested: compounds of the examples of the present application, self-made.
Phencyclidine hydrochloride (PCP): purchased from Shanghai Yuansi Standard Science Technology Co., Ltd., specification: 5 g.
as §3
That is, animals were transferred from the feeding room to the laboratory, and moved freely in the cage.
The animals were randomly divided into blank group, model group, and administration group according to body weight, 9 mice/group, and the detailed administration information is shown in the following table:
T0 min intraperitoneal injection of modeling drug: 30 minutes after compound administration, the mice were taken out, and administered with PCP (5 mg/kg) by intraperitoneal injection. The blank control group was injected with pure water.
as §4

Structure (SMILES) | pEC50 (5-HT1A receptor) | 5-HT1A Max Act % (5-HT1A receptor) [%] | pEC50 (TAAR1 receptor) | TAAR1 Max Act % (TAAR1 receptor) [%] | ED50 ([1]; Mus musculus, movement distance over 150 min, read-out: ED50 (half effective dose)) [mg/kg] | MED (minimum effective dose) [1] [mg/kg] | MED (minimum effective dose) [2] [mg/kg]
CNC[C@@H]1OCC2(CC2)c2ccsc21 (single isomer, unassigned) [Example 8-S] | 6.04 | 90.7 | 6.15 | 96.1 | 0.36 | 0.3 | 0.3
CNC[C@@H]1OCC2(CC2)c2sccc21 (single isomer, unassigned) [Example 9-R] |  |  |  |  |  | 10 | 0.1
CNC[C@H]1OCC2(CC2)c2sccc21 (single isomer, unassigned) [Example 9-S] |  |  | 6.10 | 95.8 |  |  | 
CNCC1OCC2(CCC2)c2ccsc21 (stereo not drawn) [Example 2, 1-(5′H,7′H-spiro[cyclobutane-1,4′-thieno[2,3c]pyran]-7′-yl)-N-methylmethylamine] | 6.59 | 108.9 |  |  |  |  | 
CNCC1OCC2(CC2)c2c(C)csc21 (stereo not drawn) [Example 7, 1-(3′-methyl-5′H,7′H-Spiro[cyclopropane-1,4′-thieno[2,3-c]pyran]-7′-yl)-N-methylmethylamine] | 6.40 | 93.4 |  |  |  |  | 
CNCC1OCC2(CC2)c2ccsc21 (stereo not drawn) [Example 8, 1-(5′H,7′H-Spiro[cyclopropane-1,4-thieno[2,3-c]pyran]-7′-yl)-N-methylmethylamine] | 5.81 | 91.6 | 5.79 | 96.6 |  |  | 
CNCC1OCC2(CC2)c2sccc21 (stereo not drawn) [Example 9, 1-(4′H,6′H-spiro[cyclopropane-1,7′-thieno[3,2-c]pyran]-4′-yl)-N-methylmethylamine] | 5.61 | 92.7 | 5.78 | 95.5 |  |  | 
[2H]C([2H])([2H])NCC1OCC2(CC2)c2ccsc21 (stereo not drawn) [Example 15, N-((5′H,7′H-Spiro[cyclopropane-1,4′-thieno[2,3-c]pyran]-7′-yl)methyl)methane-d3-amine] | 5.57 | 93.7 | 5.76 | 93.3 |  |  | 
CCNCC1OCC2(CC2)c2ccsc21 (stereo not drawn) [Example 16, N-((5′H,7′H-spiro[cyclopropane-1,4′-thieno[2,3-c]pyran]-7′-yl)methyl)ethylamine] | 5.86 | 115.6 |  |  |  |  | 
c1cc2c(s1)C(CN1CCC1)OCC21CC1 (stereo not drawn) [Example 23, 1-((5′H,7′H-Spiro[cyclopropane-1,4′-thieno[2,3-c]pyran]-7′-yl)methyl)azetidine] | 5.26 | 75.5 |  |  |  |  | 
[2H]C([2H])([2H])NCC1OCC2(CC2)c2sccc21 (stereo not drawn) [Example 32, N-((4′,6′-dihydrospiro[cyclopropane-1,7′-thieno[3,2-c]pyran]-4′-yl)methyl)methyl-D3-amine] | 5.72 | 80.5 | 5.88 | 97.7 |  |  | 
[2H]C([2H])([2H])NC[C@@H]1OCC2(CC2)c2sccc21 [Example 32-R, (R)—N-((4′,6′-dihydrospiro[cyclopropane-1,7′-thieno[3,2-c]pyran]-4′-yl)methyl)methyl-D3-amine] | 5.78 | 86.3 |  |  |  |  | 
[2H]C([2H])([2H])NC[C@H]1OCC2(CC2)c2sccc21 [Example 32-S, (S)—N-((4′,6′-dihydrospiro[cyclopropane-1,7′-thieno[3,2-c]pyran]-4′-yl)methyl)methyl-D3-amine] |  |  | 6.09 | 97.1 |  |  | 
